# Starred links: 1 amine or outer side, 2 acyl side, 3 side chain; linkers in the order of their positions; H or OH if unused. Positions of bridges follow the written chain, without caps; N, C: chain ends. Non-standard residues stand in square brackets, D forms with d. Residues, ends and D or L forms follow the SMILES beside them. X1 = O=C([C@@H]1C[C@H](n2cc(C3=CC=C[CH]3[Fe][CH]3C=CC=C3)nn2)CN1[*:1])[*:2]
# Key:
# HIV-1 gp120 = details: for Activity in SPR competition binding to gp120 (in words): dual receptor site (sCD4 and 17b) inhibition
# trypsin = details: 37 °C, 5-hour incubation
Compound,Activity in SPR competition binding to gp120 (in words) (HIV-1 gp120),"Enhancement of activity of macrocycle 7 vs 2 (HIV-1 gp120; SPR, shorter green linker (Asp instead of Glu))",Stability to trypsin (in words) (trypsin),"Stability to chymotrypsin (in words) (chymotrypsin; 37 °C, 5-hour incubation)","Stability to chymotrypsin (in words), 30 min (chymotrypsin; 37 °C, 30 minute incubation)","Intactness after chymotrypsin digestion (in words), 40 h (chymotrypsin; 40 h incubation, HPLC and ESI-MS)"
CC[C@H](C)[C@@H]1NC(=O)[C@H](CC(N)=O)NC(=O)[C@@H](N)CC(=O)NCCCC[C@@H](C(N)=O)NC(=O)[C@H](Cc2c[nH]c3ccccc23)NC(=O)[C@@H]2C[C@H](n3cc(C4=CC=C[CH]4[Fe][CH]4C=CC=C4)nn3)CN2C1=O (stereo partly shown) [Compound 9] (H-DNI[X1]WK-NH2; lactam 1-6; C-terminus assumed),enhanced dual receptor site antagonizing activities compared to their non-ferrocene analogues,–,–,–,–,–
CC[C@H](C)[C@@H]1NC(=O)[C@H](CC(N)=O)NC(=O)[C@@H](N)CC(=O)NCCCC[C@@H](C(N)=O)NC(=O)[C@H](Cc2c[nH]c3ccccc23)NC(=O)[C@@H]2C[C@H](n3cc(CCc4ccccc4)nn3)CN2C1=O [Compound 7],–,almost two-fold enhanced activity,completely resistant,completely resistant,almost unchanged,remained intact
CC[C@H](C)[C@H](N)C(=O)N[C@H]1CCC(=O)NCCCC[C@@H](C(N)=O)NC(=O)[C@H](Cc2c[nH]c3ccccc23)NC(=O)[C@@H]2C[C@H](n3cc(C4=CC=C[CH]4[Fe][CH]4C=CC=C4)nn3)CN2C(=O)[C@H]([C@@H](C)CC)NC(=O)[C@H](CC(N)=O)NC1=O (stereo partly shown) [Compound 4] (H-IENI[X1]WK-NH2; lactam 2-7; N-terminus and C-terminus assumed),enhanced dual receptor site antagonizing activities compared to their non-ferrocene analogues,–,–,–,–,–

# — paper PMC4936186 (Journal of medicinal chemistry, 2015)
